Data: BindingDB's records for doi:10.1021/jm800797n (University of Tartu, 2009)

How the values were obtained:
[1] = target: cAMP-dependent protein kinase catalytic subunit alpha (Bos taurus) (UniProt P00517); assay: The assay is based on the kinase-bound labeled fluorescent probe can be displaced by competitive inhibitors, which can be registered by measurement of the resulting change in fluorescence properties of the solution. The binding curves were fitted using GraphPad Prism version 4.03 using sigmoidal dose-respons; conditions: pH 7.5
[2] = target: cAMP-dependent protein kinase catalytic subunit alpha (Bos taurus) (UniProt P00517); assay: The IC50 values of the inhibitors corresponding to the concentration of the inhibitor decreasing the enzyme activity 50% were measured using fluorescent-labeled substrate. The phosphorylation reaction was initiated by the addition of ATP. At fixed time points, the reaction was analyzed by normal phase TLC. The visualization and quantification
[3] = target: RAC-gamma serine/threonine-protein kinase (Homo sapiens, UniProt Q9Y243); assay: Fluorometric TLC Kinase Assay
Chain of RAC-gamma serine/threonine-protein kinase (Q9Y243 whole entry): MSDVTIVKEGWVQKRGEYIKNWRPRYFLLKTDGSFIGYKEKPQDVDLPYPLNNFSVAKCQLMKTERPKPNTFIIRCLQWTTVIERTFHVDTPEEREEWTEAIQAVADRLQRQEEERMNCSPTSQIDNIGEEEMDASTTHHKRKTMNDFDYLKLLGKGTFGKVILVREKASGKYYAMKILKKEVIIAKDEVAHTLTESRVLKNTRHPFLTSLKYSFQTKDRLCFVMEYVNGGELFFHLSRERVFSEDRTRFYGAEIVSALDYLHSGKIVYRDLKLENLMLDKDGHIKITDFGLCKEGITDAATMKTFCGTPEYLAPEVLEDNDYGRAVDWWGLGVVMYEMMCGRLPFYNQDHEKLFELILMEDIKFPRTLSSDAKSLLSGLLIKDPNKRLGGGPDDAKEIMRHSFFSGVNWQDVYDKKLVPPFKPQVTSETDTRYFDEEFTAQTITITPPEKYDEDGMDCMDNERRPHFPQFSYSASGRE

IC50 [2]	IC50 [3]	Compound	Kd [1]
–	2040 nM	C[C@@H](NC(=O)CCCCCNC(=O)[C@@H]1C[C@@H](O)[C@H](n2cnc3c(N)ncnc32)C1)C(=O)NCCCCCC(=O)N[C@H](CCCNC(=N)N)C(=O)N[C@H](CCCNC(=N)N)C(N)=O [6-{[(1S,3R,4R)-3-(6-amino-9H-purin-9-yl)-4-hydroxycyclopentyl]formamido}-N-[(1R)-1-[(5-{[(1R)-4-carbamimidamido-1-{[(1R)-4-carbamimidamido-1-carbamoylbutyl]carbamoyl}butyl]carbamoyl}pentyl)carbamoyl]ethyl]hexanamide]	–
2.41 nM	–	NC(=O)[C@@H](CCCN=C(N)N)NC(=O)[C@@H](CCCN=C(N)N)NC(=O)[C@@H](CCCN=C(N)N)NC(=O)[C@@H](CCCN=C(N)N)NC(=O)[C@@H](CCCN=C(N)N)NC(=O)[C@@H](CCCN=C(N)N)NC(=O)CCCCCNC(=O)[C@@H]1C[C@@H](O)[C@H](n2cnc3c(N)ncnc32)C1 [6-{[(1S,3R,4R)-3-(6-amino-9H-purin-9-yl)-4-hydroxycyclopentyl]formamido}-N-[(1R)-4-carbamimidamido-1-{[(1R)-4-carbamimidamido-1-{[(1R)-4-carbamimidamido-1-{[(1R)-4-carbamimidamido-1-{[(1R)-4-carbamimidamido-1-{[(1R)-4-carbamimidamido-1-carbamoylbutyl]carbamoyl}butyl]carbamoyl}butyl]carbamoyl}butyl]carbamoyl}butyl]carbamoyl}butyl]hexanamide]	–
5.3 nM	30.7 nM	NC(=O)[C@@H](CCCN=C(N)N)NC(=O)[C@@H](CCCN=C(N)N)NC(=O)[C@@H](CCCN=C(N)N)NC(=O)[C@@H](CCCN=C(N)N)NC(=O)[C@@H](CCCN=C(N)N)NC(=O)[C@@H](CCCN=C(N)N)NC(=O)CCCCCNCCNS(=O)(=O)c1cccc2cnccc12 [N-[(1R)-4-carbamimidamido-1-{[(1R)-4-carbamimidamido-1-{[(1R)-4-carbamimidamido-1-{[(1R)-4-carbamimidamido-1-{[(1R)-4-carbamimidamido-1-{[(1R)-4-carbamimidamido-1-carbamoylbutyl]carbamoyl}butyl]carbamoyl}butyl]carbamoyl}butyl]carbamoyl}butyl]carbamoyl}butyl]-6-{[2-(isoquinoline-5-sulfonamido)ethyl]amino}hexanamide]	–

Further lines, the compound ahead of its results:

Compound	IC50 [2]	IC50 [3]	Kd [1]
O=S(=O)(NCCNC/C=C/c1ccc(Br)cc1)c1cccc2cnccc12	–	–	23 nM
N=C(N)NCCC[C@@H](NC(=O)[C@@H](CCCNC(=N)N)NC(=O)[C@@H](CCCNC(=N)N)NC(=O)[C@@H](CCCNC(=N)N)NC(=O)[C@@H](CCCNC(=N)N)NC(=O)[C@@H](CCCNC(=N)N)NC(=O)CCCCCNC(=O)[C@H]1O[C@@H](n2cnc3c(N)ncnc32)[C@H](O)[C@@H]1O)C(N)=O	8.3 nM	–	–
NC(=O)[C@H](Cc1ccc(C(=O)c2ccccc2)cc1)NC(=O)CCCCCNC(=O)[C@H]1O[C@@H](n2cnc3c(N)ncnc32)[C@H](O)[C@@H]1O [6-{[(2S,3S,4R,5R)-5-(6-amino-9H-purin-9-yl)-3,4-dihydroxyoxolan-2-yl]formamido}-N-[(1S)-2-(4-benzoylphenyl)-1-carbamoylethyl]hexanamide]	–	–	> 100000 nM
N=C(N)NCCC[C@@H](NC(=O)[C@@H](CCCNC(=N)N)NC(=O)[C@@H](CCCNC(=N)N)NC(=O)[C@@H](CCCNC(=N)N)NC(=O)[C@@H](CCCNC(=N)N)NC(=O)[C@@H](CCCNC(=N)N)NC(=O)CCCCCNC(=O)[C@@H](CCCCN)NC(=O)CCCCCNC(=O)[C@H]1O[C@@H](n2cnc3c(N)ncnc32)[C@H](O)[C@@H]1O)C(N)=O [(2R)-6-amino-2-(6-{[(2S,3S,4R,5R)-5-(6-amino-9H-purin-9-yl)-3,4-dihydroxyoxolan-2-yl]formamido}hexanamido)-N-(5-{[(1R)-4-carbamimidamido-1-{[(1R)-4-carbamimidamido-1-{[(1R)-4-carbamimidamido-1-{[(1R)-4-carbamimidamido-1-{[(1R)-4-carbamimidamido-1-{[(1R)-4-carbamimidamido-1-carbamoylbutyl]carbamoyl}butyl]carbamoyl}butyl]carbamoyl}butyl]carbamoyl}butyl]carbamoyl}butyl]carbamoyl}pentyl)hexanamide]	–	–	< 0.5 nM
